Where two headings read alike, the source gives them in different places.
Assays:
human TAAR1 = human TAAR1 (Homo sapiens (Human), UniProt Q96RJ0); assay: cAMP functional assay in HEK293 cells expressing human TAAR1; assay type: cell-based; details: for hTAAR1 efficacy*: % agonist activity, β-phenylethylamine = 100% agonism; for EC50: cAMP, HEK293 cells expressing human TAAR1, read-out: hTAAR1 EC50
Experimental: For the construction of expression plasmids the coding sequences of human TAAR 1 were amplified from genomic DNA essentially as described by Lindemann et al.[14]. The Expand High Fidelity PCR System (Roche Diagnostics) was used with 1.5 mM Mg^2+ and purified PCR products were cloned into pCR2.1-TOPO cloning vector (Invitrogen) following the instructions of the manufacturer. PCR products were subcloned into the pIRESneo2 vector (BD Clontech, Palo Alto, Calif.), and expression vectors were sequence verified before introduction in cell lines.
HEK293 cells (ATCC # CRL-1573) were cultured essentially as described by Lindemann et al. (2005). For the generation of stably transfected cell lines HEK293 cells were transfected with the pIRESneo2 expression plasmids containing the TAAR coding sequences (described above) with Lipofectamine 2000 (Invitrogen) according to the instructions of the manufacturer, and 24 hrs post transfection the culture medium was supplemented with 1 mg/ml G418 (Sigma, Buchs, Switzerland). After a culture period of about 10 d clones were isolated, expanded and tested for responsiveness to trace amines (all compounds purchased from Sigma) with the cAMP Biotrak Enzyme immunoassay (EIA) System (Amersham) following the non-acetylation EIA procedure provided by the manufacturer.
cAMP measurements were performed as described previously (Revel et al., Proc. Natl. Acad. Sci. USA 2011, 108, 8485-8490). In brief, cells that expressed human TAAR1 were plated on 96-well plates (BIOCOAT 6640; Becton Dickinson, Allschwil, Switzerland) and incubated for 20 h at 37° C. Prior to stimulation of the cells with a broad concentration range of agonists for 30 min at 37° C., the cells were washed with PBS and preincubated with PBS that contained 1 mM 3-isobutyl-1-methylxanthine for 10 min at 37° C. and 5% CO2. Stimulation with 0.2% DMSO was set as the basal level, and the effect of 30 μM β-PEA was set as the maximal response. Subsequently, the cells were lysed, and cAMP assays were performed according to the manufacturer's instructions (cAMP kit; Upstate/Millipore, Schaffhausen, Switzerland). Finally, the plates were read with a luminometer (1420 Multilabel counter; PerkinElmer, Schwerzenbach, Switzerland), and the amount of cAMP was calculated. The results were obtained from at least three independent experiments. Experiments were run in duplicate or triplicate. EC50 values are presented as mean ±standard deviation (in μM).

hERG potassium channel = hERG potassium channel (Homo sapiens (Human), UniProt Q12809); assay: hERG whole-cell patch-clamp in stably transfected CHO cells; assay type: cell-based; details: for IC50: patch-clamp, CHO cells, 36±1° C.; for selectivity ratio: pH 7.4, hERG IC20 / hTAAR1 EC50, read-out: hERG selectivity ratio versus hTAAR1 EC50
Experimental: The whole-cell patch-clamp technique was used to investigate the effects of the test items on hERG (human-ether-a-go-go related gene) potassium channels in stably transfected CHO cells near physiological temperature (36±1° C.). The effects of compounds on hERG K^+-current parameters were evaluated at 4 concentrations (0.3-3-30-300 μM) in at least 3 CHO cells stably expressing the hERG channel. For electrophysiological measurements cells were seeded onto 35 mm sterile culture dishes containing 2 ml culture medium without Hygromycin B. Cells were cultivated at a density that enabled single cells (without visible connections to neighbouring cells) to be measured. Cells were incubated at 37° C. in a humidified atmosphere with 5% CO2 (rel. humidity about 95%). The cells were continuously maintained in and passaged in sterile culture flasks containing nutrient mixture F-12 (DMEM/F-12 with L-Glutamine) supplemented with 10% foetal bovine serum and 10% penicillin/streptomycin solution. […] The 35 mm culture dishes upon which cells were seeded at a density allowing single cells to be recorded were placed on the dish holder of the microscope and continuously perfused (at approximately 1 ml/min) with the bath solution (sodium chloride 150 mM, potassium chloride 4 mM, calcium chloride 1.2 mM, magnesium chloride 1 mM, HEPES 10 mM, pH (NaOH) 7.4) at near physiological temperature (36±1° C.). After formation of a Gigaohm seal between the patch electrodes and individual hERG stably transfected CHO cells (pipette resistance range: 2.0 MΩ-7.0 Mω; seal resistance range: >1 Gω) the cell membrane across the pipette tip was ruptured to assure electrical access to the cell interior (whole-cell patch-configuration). In case the quality of the seal was poor, the process of seal formation was repeated with a different cell and a new pipette. […] This voltage protocol was run at least 10 times at intervals of 10 s. If current density was judged to be too low for measurement, another cell was recorded. […] During wash-in of the test item the voltage protocol indicated above was run continuously again at 10 s intervals until the steady-state level of block was reached. The four test item concentrations of the compound were applied sequentially to 3 cells in a cumulative manner. […] Based on the IC50 value the IC20 was estimated. Each concentration of the test item was analyzed in three experiments (n=3).

human DAT = human DAT (Homo sapiens (Human), UniProt Q01959); assay: Binding to dopamine transporter (DAT) in vitro, [3H]-WIN35,428 SPA; details: for Ki: [3H]-WIN35,428 radioligand; for DAT selectivity ratio versus hTAAR1 EC50: DAT Ki / hTAAR1 EC50
Experimental: Binding to dopamine transporter (DAT) in vitro. Human embryonic kidney (HEK) 293 cells (Invitrogen, Zug, Switzerland) stably transfected with human DAT were cultured. The cells were collected and washed three times with phosphate-buffered saline (PBS). The pellets were frozen at −80° C. The pellets were then resuspended in 400 ml of 20 mM HEPES-NaOH, pH 7.4, that contained 10 mM EDTA at 4° C. After homogenization with a Polytron (Kinematica, Lucerne,
Switzerland) at 10000 rotations per minute (rpm) for 15 s, the homogenates were centrifuged at 48000×g for 30 min at 4° C. Aliquots of the membrane stocks were frozen at −80° C. All assays were performed at least three times. The test compounds were diluted in […] of binding buffer (252 mM NaCl, 5.4 mM KCl, 20 mM Na2HPO4, 3.52 mM KH2PO4, pH 7.4) and 10 point dilution curves were made and transferred to 96-well white polystyrene assay plates (Sigma-Aldrich, Buchs, Switzerland). […] Twenty microliters of binding buffer alone in the assay plate defined the total binding, whereas binding in the presence of 10 μM indatraline defined nonspecific binding. Frozen DAT membrane stocks were thawed and resuspended to a concentration of approximately 0.04 mg protein/ml binding buffer (1:1 diluted in H2O) using a polytron tissue homogenizer. The membrane homogenates (40 μg/ml) were then lightly mixed for 5-30 min with polyvinyl toluene […] wheat germ agglutinin-coated scintillation proximity assay (WGASPA; Amersham Biosciences) beads at 7.7 mg beads/ml homogenate. One hundred thirty microliters of the membrane/bead mixture were added to each well of the assay plate that contained radioligand and test compounds (final volume in each well, 200 μl) to start the assay, which was incubated for approximately 2 h at room temperature with agitation. The assay plates were then counted in the PVT SPA counting mode of a Packard Topcount. […] Non-linear regression was used to fit the data to sigmoid curves and determine IC50 values for binding and uptake. Ki values for binding and uptake were calculated using the following Cheng-Prusoff equation: Ki=IC50/(1+[S]/Km).

[1] = estimated based on the IC50 value
[2] = human, CHO cells stably expressing hERG
[3] = human, CHO cells stably expressing hERG, pH 7.4, estimated based on the IC50 value

hERG potassium channel, sequence (Q12809 whole entry): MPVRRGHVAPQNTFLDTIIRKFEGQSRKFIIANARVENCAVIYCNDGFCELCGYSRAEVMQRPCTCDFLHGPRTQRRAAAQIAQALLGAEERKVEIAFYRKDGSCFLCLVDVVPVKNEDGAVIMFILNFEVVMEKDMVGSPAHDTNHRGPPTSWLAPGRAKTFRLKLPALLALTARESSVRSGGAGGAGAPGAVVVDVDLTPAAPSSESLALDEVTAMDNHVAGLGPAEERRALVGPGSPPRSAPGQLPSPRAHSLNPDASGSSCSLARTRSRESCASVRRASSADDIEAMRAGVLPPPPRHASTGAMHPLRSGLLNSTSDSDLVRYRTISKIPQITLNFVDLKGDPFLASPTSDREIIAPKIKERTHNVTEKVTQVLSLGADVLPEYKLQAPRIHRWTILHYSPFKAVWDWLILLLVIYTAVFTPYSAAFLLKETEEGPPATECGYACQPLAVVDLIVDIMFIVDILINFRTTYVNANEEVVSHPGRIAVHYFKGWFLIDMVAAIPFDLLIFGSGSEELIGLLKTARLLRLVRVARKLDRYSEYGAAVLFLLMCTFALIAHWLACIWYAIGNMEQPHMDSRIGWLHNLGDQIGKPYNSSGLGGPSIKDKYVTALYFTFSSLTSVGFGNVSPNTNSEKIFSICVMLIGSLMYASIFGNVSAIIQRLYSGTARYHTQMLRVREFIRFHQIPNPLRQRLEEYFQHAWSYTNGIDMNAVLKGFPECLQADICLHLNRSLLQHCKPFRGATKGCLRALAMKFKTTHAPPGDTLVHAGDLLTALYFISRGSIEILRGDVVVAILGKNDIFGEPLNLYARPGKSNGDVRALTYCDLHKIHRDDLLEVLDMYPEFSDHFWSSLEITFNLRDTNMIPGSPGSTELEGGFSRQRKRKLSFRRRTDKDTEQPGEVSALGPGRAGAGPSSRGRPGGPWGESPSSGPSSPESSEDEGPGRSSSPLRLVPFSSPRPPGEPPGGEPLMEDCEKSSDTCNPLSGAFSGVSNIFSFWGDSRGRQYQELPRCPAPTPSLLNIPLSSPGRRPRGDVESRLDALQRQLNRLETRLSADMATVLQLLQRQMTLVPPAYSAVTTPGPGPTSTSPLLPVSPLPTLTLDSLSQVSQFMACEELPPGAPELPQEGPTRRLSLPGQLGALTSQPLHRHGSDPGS
human TAAR1, sequence (Q96RJ0 whole entry): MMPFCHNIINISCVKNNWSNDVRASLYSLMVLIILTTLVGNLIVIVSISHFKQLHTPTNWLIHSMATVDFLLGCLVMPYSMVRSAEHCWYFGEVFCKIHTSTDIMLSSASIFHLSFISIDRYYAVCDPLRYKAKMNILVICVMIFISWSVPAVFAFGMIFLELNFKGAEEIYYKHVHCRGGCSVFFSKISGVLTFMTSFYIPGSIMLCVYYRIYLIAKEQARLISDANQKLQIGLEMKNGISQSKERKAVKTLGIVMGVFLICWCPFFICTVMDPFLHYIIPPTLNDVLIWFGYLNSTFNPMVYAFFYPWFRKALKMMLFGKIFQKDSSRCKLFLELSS
human DAT, sequence (Q01959 whole entry): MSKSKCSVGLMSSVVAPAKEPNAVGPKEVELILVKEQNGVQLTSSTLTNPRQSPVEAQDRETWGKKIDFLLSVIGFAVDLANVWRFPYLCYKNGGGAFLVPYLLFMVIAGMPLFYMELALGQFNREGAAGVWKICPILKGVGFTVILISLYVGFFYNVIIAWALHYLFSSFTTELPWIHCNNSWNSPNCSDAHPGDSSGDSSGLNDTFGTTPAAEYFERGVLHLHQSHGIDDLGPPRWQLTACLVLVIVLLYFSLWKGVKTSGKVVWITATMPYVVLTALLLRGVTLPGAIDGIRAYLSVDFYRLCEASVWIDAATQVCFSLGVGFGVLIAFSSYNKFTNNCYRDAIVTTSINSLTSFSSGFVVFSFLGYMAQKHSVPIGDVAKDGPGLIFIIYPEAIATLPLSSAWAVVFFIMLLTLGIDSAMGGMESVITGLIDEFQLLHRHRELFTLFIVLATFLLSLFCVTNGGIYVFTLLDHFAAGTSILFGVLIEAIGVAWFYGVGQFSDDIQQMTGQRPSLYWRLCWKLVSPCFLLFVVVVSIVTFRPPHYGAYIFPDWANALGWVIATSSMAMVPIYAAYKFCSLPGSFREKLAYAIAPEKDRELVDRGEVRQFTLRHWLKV

SMILES	hTAAR1 efficacy* (human TAAR1) [%]	functional activity at hTAAR1 (human TAAR1; in vitro)	IC20 (hERG potassium channel; [1]) [µM]	IC50 (hERG potassium channel) [µM]	Ki (human DAT) [µM]	Ki (human DAT; listed as example 1) [µM]	EC50 (human TAAR1) [µM]	Ratio hERG IC20/hTAAR1 EC50 (hERG potassium channel)	selectivity ratio (hERG potassium channel; [2])	Ratio DAT Ki/hTAAR1 EC50 (human DAT)	IC20 (hERG potassium channel; [3]) [µM]	DAT selectivity ratio versus hTAAR1 EC50 (human DAT) [fold]	Ki (human DAT; listed as example 5) [µM]	Ki (human DAT; listed as example 6) [µM]	EC50 (human TAAR1; listed as example 9) [µM]	EC50 (human TAAR1; listed as example 10) [µM]	EC50 (human TAAR1; listed as example 11) [µM]	EC50 (human TAAR1; listed as example 12) [µM]
CCc1[nH]nc(C(=O)Nc2ccc([C@H]3CNCCO3)cc2)c1C [Example 1, 5-Ethyl-4-methyl-N-[4-[(2S)-morpholin-2-yl]phenyl]-1H-pyrazole-3-carboxamide]	42	partial agonist	36.2	217	27.5	27.5	–	–	–	–	–	–	–	–	–	–	–	–
CCc1[nH]nc(C(=O)Nc2ccc([C@@H]3CNCCO3)cc2)c1C [Example 2, 5-Ethyl-4-methyl-N-[4-[(2R)-morpholin-2-yl]phenyl]-1H-pyrazole-3-carboxamide]	38	–	–	–	–	–	–	–	–	–	–	–	–	–	–	–	–	–
O=C(Nc1ccc([C@H]2CNCCO2)cc1)c1ccc(OCC(F)(F)F)nc1 [Example 3, N-[4-[(2S)-Morpholin-2-yl]phenyl]-6-(2,2,2-trifluoroethoxy)pyridine-3-carboxamide]	45	–	1.97	9.84	17.4	–	0.0377	52	52	462	–	–	–	–	–	–	–	–
O=C(Nc1ccc([C@H]2CNCCO2)cc1)c1ccc(Cl)nc1 [Example 4, 6-Chloro-N-[4-[(2S)-morpholin-2-yl]phenyl]pyridine-3-carboxamide]	49	–	–	49.7	2.5	–	0.0619	201	–	40	12.4	40	–	–	–	–	–	–
O=C(Nc1ccc([C@H]2CNCCO2)cc1)c1ccnc(Cl)c1 [Example 5, 2-Chloro-N-[4-[(2S)-morpholin-2-yl]phenyl]pyridine-4-carboxamide]	40	–	–	81.7	1.52	–	0.0656	338	–	23	22.2	23	1.5	–	–	–	–	–
O=C(Nc1ccc([C@H]2CNCCO2)cc1)c1cnc(-c2ccccc2)s1 [Example 6, N-[4-[(2S)-Morpholin-2-yl]phenyl]-2-phenyl-1,3-thiazole-5-carboxamide]	30	–	–	–	5.93	–	0.08	–	–	–	–	–	–	5.9	–	–	–	–
O=C(Nc1ccc([C@H]2CNCCO2)cc1)c1cc(Cl)nc(Cl)c1 [Example 7, 2,6-Dichloro-N-[4-[(2S)-morpholin-2-yl]phenyl]pyridine-4-carboxamide]	57	–	3.67	11.4	0.79	–	0.0849	43	43	9	3.57	9	–	–	–	–	–	–
Cc1c(C(=O)Nc2ccc([C@H]3CNCCO3)cc2)n[nH]c1-c1ccccc1 [Example 8, 4-Methyl-N-[4-[(2S)-morpholin-2-yl]phenyl]-5-phenyl-1H-pyrazole-3-carboxamide]	33	–	3.01	10.8	9.77	–	0.109	28	28	90	–	–	–	–	–	–	–	–
O=C(Nc1ccc([C@H]2CNCCO2)cc1)c1cnc(Cl)c(Cl)c1 [Example 9, 5,6-Dichloro-N-[4-[(2S)-morpholin-2-yl]phenyl]pyridine-3-carboxamide]	32	–	–	–	0.48	–	0.144	–	–	–	–	–	–	–	0.144	–	–	–
N#Cc1ccc(C(=O)Nc2ccc([C@H]3CNCCO3)cc2)cn1 [Example 10, 6-Cyano-N-[4-[(2S)-morpholin-2-yl]phenyl]pyridine-3-carboxamide]	38	–	5.78	31.7	11.3	–	0.184	31	31	62	–	–	–	–	–	0.184	–	–
O=C(Nc1ccc([C@H]2CNCCO2)cc1)c1ccc(C(F)(F)F)nc1 [Example 11, N-[4-[(2S)-Morpholin-2-yl]phenyl]-6-(trifluoromethyl)pyridine-3-carboxamide]	46	–	–	–	2.33	–	0.203	–	–	–	–	–	–	–	–	–	0.203	–
O=C(Nc1ccc([C@H]2CNCCO2)cc1)c1ccc(Cl)cn1 [Example 12, 5-Chloro-N-[4-[(2S)-morpholin-2-yl]phenyl]pyridine-2-carboxamide]	40	–	–	14.3	1.78	–	0.212	15	15	8	3.21	8	–	–	–	–	–	0.212

— US10508107B2, “Morpholine derivative” (Hoffmann-La Roche Inc., priority 2016, dated 2019)
